We go through 1 compound from ChEMBL document CHEMBL4665887, “Identification, Structure-Activity Relationships of Marine-Derived Indolocarbazoles, and a Dual PKCθ/δ Inhibitor with Potent Antipancreatic Cancer Efficacy” (J Med Chem, 2020).

One data set has as its system BXPC-3. In words: Antitumor activity against human BXPC-3 cells xenografted in nude BALB/c mouse assessed as inhibition of tumor growth at 30 mg/kg, ip QD for 18 days relative to control. In kind it is functional. The settings on record: BXPC-3, ip, 432 h, time 18 day, read-out: TGI. A general note: Xenograft models place foreign cells or tissue in a host animal.
The nature of data set [1]: Toxicity in BALB/c mouse model of patient-derived xenograft implanted with patient-derived pancreatic cancer cells assessed as effect on normal anatomical structures of lung at 30 mg/kg, ip QD for 18 days relative to control. In kind it is organism-based. To be noted: in vivo, 432 h, time 18 day.
Data set [2] in a line: Toxicity in nude BALB/c mouse xenografted with human BXPC-3 cells assessed as effect on body weight level at 30 mg/kg, ip QD for 18 days relative to control. In kind it is organism-based. The settings on record: in vivo, 432 h, time 18 day.
Data set [3] is described as follows: Toxicity in BALB/c mouse model of patient-derived xenograft implanted with patient-derived pancreatic cancer cells assessed as effect on body weight at 30 mg/kg, ip QD for 18 days relative to control. In kind it is organism-based. To be noted: in vivo, 432 h, time 18 day.
A short description of data set [4]: Toxicity in BALB/c mouse model of patient-derived xenograft implanted with patient-derived pancreatic cancer cells assessed as effect on normal anatomical structures of spleen at 30 mg/kg, ip QD for 18 days relative to control. In kind it is organism-based. The settings on record: in vivo, 432 h, time 18 day.
Data set [5] can be described thus: Antitumor activity against patient-derived pancreatic cancer cells xenografted in BALB/c mouse model of patient-derived xenograft assessed as inhibition of tumor growth at 30 mg/kg, ip QD for 18 days relative to control. In kind it is functional. To be noted: Homo sapiens, Pancreatic cancer cell, 432 h, time 18 day, read-out: TGI.
Data set [6] can be described thus: Toxicity in BALB/c mouse model of patient-derived xenograft implanted with patient-derived pancreatic cancer cells assessed as effect on normal anatomical structures of liver at 30 mg/kg, ip QD for 18 days relative to control. To be noted: in vivo, 432 h, time 18 day. In kind it is organism-based.
Data set [7] in a line: Toxicity in BALB/c mouse model of patient-derived xenograft implanted with patient-derived pancreatic cancer cells assessed as effect on normal anatomical structures of heart at 30 mg/kg, ip QD for 18 days relative to control. In kind it is organism-based. The settings on record: in vivo, 432 h, time 18 day.
Data set [8] can be described thus: Toxicity in BALB/c mouse model of patient-derived xenograft implanted with patient-derived pancreatic cancer cells assessed as effect on normal anatomical structures of kidney at 30 mg/kg, ip QD for 18 days relative to control. The settings on record: in vivo, 432 h, time 18 day. In kind it is organism-based.

In the case of `CC(=O)c1cc2c(o1)C(=O)c1ccccc1C2=O` [NAPABUCASIN], the inhibition in vivo at 30 mg/kg with BXPC-3 is 34.2%; in data set [5], 41.8%. Further, the Activity result in data set [1], in data set [2], in data set [3], in [4], in data set [6] and in data set [7] was “Non-Toxic” in each case. Moreover, the Activity entry in [8] is “Non-Toxic”.
